Results reported in ChEMBL document CHEMBL5149973, “Agaricus bisporus-Derived Glucosamine Hydrochloride Facilitates Skeletal Injury Repair through Bmp Signaling in Zebrafish Osteoporosis Model” (J Nat Prod, 2021).
Active and inactive are the calls of the source.

What was measured:
Danio rerio [1] = species on record: Danio rerio; assay: Induction of Zebrafish embryo skeletal development assessed as upregulation of col10a1a gene expression in operculum at 0.01 to 0.3 % measured after 72 hrs post fertilization by […] analysis; assay type: functional; details: dose 0.01-0.3 %
Danio rerio [2] = species on record: Danio rerio; assay: Anti-osteoporosis activity in FAC-induced skeletal injury Zebrafish larvae assessed as increase in Col1a2 mRNA expression level measured for 10 day post fertilization by semiquantitative-PCR analysis; assay type: functional, organism-based; details: Larva
Danio rerio [3] = species on record: Danio rerio; assay: Anti-osteoporosis activity in FAC-induced skeletal injury Zebrafish assessed as increase in cumulative bone optical density in caudal fins at 0.1 % measured for 10 day post fertilization; assay type: functional, organism-based
Danio rerio [4] = species on record: Danio rerio; assay: Induction of Zebrafish embryo skeletal development assessed as increase in Bmp2b mRNA expression level expanded from ventral side to dorsal side at 0.1 to 0.3 % measured at 24 hrs post fertilization by ISH analysis; assay type: functional, tissue-based; details: dose 0.1-0.3 %
Danio rerio [5] = species on record: Danio rerio; assay: Induction of Zebrafish embryo skeletal development assessed as increase in Smad1 gene expression level in coccygeal vertebra at 0.1 % measured for 0.75 to 24 hrs post fertilization by ISH analysis; assay type: functional, tissue-based; details: time 0.75-24 hrs
Danio rerio [6] = species on record: Danio rerio; assay: Suppression of Bmp signaling in mCherry Zebrafish embryos assessed as increase in colocalization in tail by measuring fluorescence intensity at 0.1 % measured at 36 hrs post fertilization; assay type: functional, organism-based; details: Embryo

Measured: Activity

Cl.N[C@@H]1[C@@H](O)[C@H](O)[C@@H](CO)O[C@H]1O
active: all assays above
